In the assay the target is GLP-1 Receptor (Homo sapiens, UniProt P43220). Description: GLP-1R agonist cAMP stimulation assay (HEK293/GLP1R/CRE-LUC cells, cAMP dynamic 2 Kit). In kind it is cell-based. Conditions: HEK293/CRE-Luc cell line stably expressing the GLP-1 Receptor, 30 min at 37° C. Put shortly: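 HEK293 cells stably expressing human GLP-1R with CRE-luciferase, 1000 cells/well in DPBS with 0.5 mM IBMX and 0.1% BSA, treated with compound in 1/2-log serial dilution for 30 min at 37 °C. cAMP then detected by HTRF (cAMP-d2 plus anti-cAMP cryptate), 1 h at room temperature in the dark.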
Chain of GLP-1 Receptor (P43220 24-463, species assumed): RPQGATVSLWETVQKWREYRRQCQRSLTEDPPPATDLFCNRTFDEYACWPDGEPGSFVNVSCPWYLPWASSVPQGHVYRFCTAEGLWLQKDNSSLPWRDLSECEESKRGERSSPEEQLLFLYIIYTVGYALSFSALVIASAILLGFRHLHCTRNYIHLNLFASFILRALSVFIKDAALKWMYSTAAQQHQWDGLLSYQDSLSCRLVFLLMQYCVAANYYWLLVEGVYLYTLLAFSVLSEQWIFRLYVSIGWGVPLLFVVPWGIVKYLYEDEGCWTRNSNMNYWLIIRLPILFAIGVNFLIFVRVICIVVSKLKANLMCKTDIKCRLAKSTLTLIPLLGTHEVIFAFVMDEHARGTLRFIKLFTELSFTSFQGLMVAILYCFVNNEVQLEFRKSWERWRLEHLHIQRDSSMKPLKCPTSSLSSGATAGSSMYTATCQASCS
For `CC1(c2ccc(Cl)cc2F)Oc2cccc(C3CCN(Cc4nc5cc(-c6nnn[nH]6)c(F)cc5n4C[C@@H]4CCO4)CC3)c2O1` (stereo partly drawn) [Compound 223a, 2-({4-[2-(4-chloro-2-fluorophenyl)-2-methyl-2H-1,3-benzodioxol-4-yl]piperidin-1-yl}methyl)-6-fluoro-1-{[(2S)-oxetan-2-yl]methyl}-5-(1H-1,2,3,4-tetrazol-5-yl)-1H-1,3-benzodiazole], the EC50 came out at 0.12 nM.
In turn, `CC1(c2ccc(Cl)cc2)Oc2cccc(C3CCN(Cc4nc5cc(-c6nnc(C(F)(F)F)[nH]6)cnc5n4C[C@@H]4CCO4)CC3)c2O1` (stereo partly drawn) [Compound 225a, 4-[2-(4-chlorophenyl)-2-methyl-2H-1,3-benzodioxol-4-yl]-1-[(3-{[(2S)-oxetan-2-yl]methyl}-6-[5-(trifluoromethyl)-4H-1,2,4-triazol-3-yl]-3H-imidazo[4,5-b]pyridin-2-yl)methyl]piperidine] yielded an EC50 of 0.064 nM.
In turn, `CC1(c2ccc(Cl)cc2)Oc2cccc(C3CCN(Cc4nc5cc(-c6nnc(C(F)(F)F)[nH]6)ccc5n4C[C@@H]4CCO4)CC3)c2O1` (stereo partly drawn) [Compound 226a, 2-({4-[2-(4-chlorophenyl)-2-methyl-2H-1,3-benzodioxol-4-yl]piperidin-1-yl}methyl)-1-{[(2S)-oxetan-2-yl]methyl}-5-[5-(trifluoromethyl)-4H-1,2,4-triazol-3-yl]-1H-1,3-benzodiazole] had a 50% effective concentration (EC50) of 0.13 nM.
Consider `CC1(c2ccc(Cl)cc2F)Oc2cccc(C3CCN(Cc4nc5cc(-c6nnc(C(F)F)[nH]6)ccc5n4C[C@@H]4CCO4)CC3)c2O1` (stereo partly drawn) [Compound 227a, 2-({4-[2-(4-chloro-2-fluorophenyl)-2-methyl-2H-1,3-benzodioxol-4-yl]piperidin-1-yl}methyl)-5-[5-(difluoromethyl)-4H-1,2,4-triazol-3-yl]-1-{[(2S)-oxetan-2-yl]methyl}-1H-1,3-benzodiazole], for which a half-maximal response (EC50) required 0.094 nM.
With `CC1(c2ccc(Cl)cc2F)Oc2cccc(C3CCN(Cc4nc5cc(-c6cn(CCO)nn6)ccc5n4C[C@@H]4CCO4)CC3)c2O1` (stereo partly drawn) [Compound 228a, 2-{4-[2-({4-[2-(4-chloro-2-fluorophenyl)-2-methyl-2H-1,3-benzodioxol-4-yl]piperidin-1-yl}methyl)-1-{[(2S)-oxetan-2-yl]methyl}-1H-1,3-benzodiazol-5-yl]-1H-1,2,3-triazol-1-yl}ethan-1-ol] the figure was 0.19 nM; with `COCCn1c(CN2CCC(c3cccc4c3OC(C)(c3ccc(Cl)cc3F)O4)CC2)nc2cc(-c3noc(=O)[nH]3)ccc21` (stereo not shown) [Compound 230a, 3-(2-((4-(2-(4-chloro-2-fluorophenyl)-2-methylbenzo[d][1,3]dioxol-4-yl)piperidin-1-yl)methyl)-1-(2-methoxyethyl)-1H-benzo[d]imidazol-5-yl)-1,2,4-oxadiazol-5(4H)-one], 0.88 nM; with `CC1(c2ccc(Cl)cc2F)Oc2cccc(C3CCN(Cc4nc5cc(-c6noc(=O)[nH]6)ccc5n4CC4(C#N)CC4)CC3)c2O1` (stereo not shown) [Compound 231a, 1-((2-((4-(2-(4-chloro-2-fluorophenyl)-2-methylbenzo[d][1,3]dioxol-4-yl)piperidin-1-yl)methyl)-5-(5-oxo-4,5-dihydro-1,2,4-oxadiazol-3-yl)-1H-benzo[d]imidazol-1-yl)methyl)cyclopropane-1-carbonitrile], 0.031 nM.
In the case of `CC1(c2ccc(Cl)cc2F)Oc2cccc(C3CCN(Cc4nc5cc(-c6nnn[nH]6)ccc5n4C[C@@H]4CCO4)CC3)c2O1` (stereo partly drawn) [Compound 232a, 2-((4-(2-(4-chloro-2-fluorophenyl)-2-methylbenzo[d][1,3]dioxol-4-yl)piperidin-1-yl)methyl)-1-(((S)-oxetan-2-yl)methyl)-5-(1H-tetrazol-5-yl)-1H-benzo[d]imidazole], the EC50 was 0.16 nM.
As to `Cn1cc(-c2ccc3c(c2)nc(CN2CCC(c4cccc5c4OC(C)(c4ccc(Cl)cc4F)O5)CC2)n3C[C@@H]2CCO2)cn1` (stereo partly drawn) [Compound 233a, 2-((4-(2-(4-chloro-2-fluorophenyl)-2-methylbenzo[d][1,3]dioxol-4-yl)piperidin-1-yl)methyl)-5-(1-methyl-1H-pyrazol-4-yl)-1-(((S)-oxetan-2-yl)methyl)-1H-benzo[d]imidazole], the EC50 was 4 nM.
Compound `CC1(c2ccc(Cl)cc2F)Oc2cccc(C3CCN(Cc4nc5cc(-c6cn[nH]c6)ccc5n4C[C@@H]4CCO4)CC3)c2O1` (stereo partly drawn) [Compound 234a, 2-((4-(2-(4-chloro-2-fluorophenyl)-2-methylbenzo[d][1,3]dioxol-4-yl)piperidin-1-yl)methyl)-1-(((S)-oxetan-2-yl)methyl)-5-(1H-pyrazol-4-yl)-1H-benzo[d]imidazole] returned an EC50 of 3.7 nM.
Next, `CC1(c2ccc(Cl)cc2F)Oc2cccc(C3CCN(Cc4nc5cc(NC(=O)c6cccnc6)ccc5n4C[C@@H]4CCO4)CC3)c2O1` (stereo partly drawn) [Compound 235a, N-(2-((4-(2-(4-chloro-2-fluorophenyl)-2-methylbenzo[d][1,3]dioxol-4-yl)piperidin-1-yl)methyl)-1-(((S)-oxetan-2-yl)methyl)-1H-benzo[d]imidazol-5-yl)nicotinamide]: 0.062 nM.
Turning to `Cc1cnc(-c2ccc3c(c2)nc(CN2CCC(c4cccc5c4O[C@@](C)(c4ccc(Cl)cc4F)O5)CC2)n3C[C@@H]2CCO2)nc1` [Compound 236a, 2-((4-((S)-2-(4-chloro-2-fluorophenyl)-2-methylbenzo[d][1,3]dioxol-4-yl)piperidin-1-yl)methyl)-5-(5-methylpyrimidin-2-yl)-1-(((S)-oxetan-2-yl)methyl)-1H-benzo[d]imidazole], a half-maximal response (EC50) required 2 nM.
Compound `Cc1ncc(-c2ccc3c(c2)nc(CN2CCC(c4cccc5c4OC(C)(c4ccc(Cl)cc4F)O5)CC2)n3C[C@@H]2CCO2)cn1` (stereo partly drawn) [Compound 237a, 2-((4-(2-(4-chloro-2-fluorophenyl)-2-methylbenzo[d][1,3]dioxol-4-yl)piperidin-1-yl)methyl)-5-(2-methylpyrimidin-5-yl)-1-(((S)-oxetan-2-yl)methyl)-1H-benzo[d]imidazole] had an EC50 of 9.1 nM.
Consider `Cn1cc(-c2ccc3c(c2)nc(CN2CCC(c4cccc5c4OC(C)(c4ccc(Cl)cc4F)O5)CC2)n3C[C@@H]2CCO2)nn1` (stereo partly drawn) [Compound 238a, 2-((4-(2-(4-chloro-2-fluorophenyl)-2-methylbenzo[d][1,3]dioxol-4-yl)piperidin-1-yl)methyl)-5-(1-methyl-1H-1,2,3-triazol-4-yl)-1-(((S)-oxetan-2-yl)methyl)-1H-benzo[d]imidazole], for which the EC50 was 0.12 nM.
As to `CC(=O)Nc1ccc2c(c1)nc(CN1CCC(c3cccc4c3OC(C)(c3ccc(Cl)cc3F)O4)CC1)n2C[C@@H]1CCO1` (stereo partly drawn) [Compound 240a, N-(2-((4-(2-(4-chloro-2-fluorophenyl)-2-methylbenzo[d][1,3]dioxol-4-yl)piperidin-1-yl)methyl)-1-(((S)-oxetan-2-yl)methyl)-1H-benzo[d]imidazol-5-yl)acetamide], the EC50 stood at 1.1 nM.
For `Fc1cc(Cl)ccc1COc1ncc(F)c(C2=CCC(Cc3nc4cc(-c5nnn[nH]5)ccc4n3C[C@@H]3CCO3)CC2)n1` (stereo partly drawn) [Compound 241a, 2-((4-(2-((4-chloro-2-fluorobenzyl)oxy)-5-fluoropyrimidin-4-yl)cyclohex-3-en-1-yl)methyl)-1-(((S)-oxetan-2-yl)methyl)-5-(1H-tetrazol-5-yl)-1H-benzo[d]imidazole], the EC50 was 0.32 nM.
With `O=c1[nH]c(-c2ccc3c(c2)nc(CC2CC=C(c4nc(OCc5ccc(Cl)cc5F)ncc4F)CC2)n3C[C@@H]2CCO2)no1` (stereo partly drawn) [Compound 242a, 3-(2-((4-(2-((4-chloro-2-fluorobenzyl)oxy)-5-fluoropyrimidin-4-yl)cyclohex-3-en-1-yl)methyl)-1-(((S)-oxetan-2-yl)methyl)-1H-benzo[d]imidazol-5-yl)-1,2,4-oxadiazol-5(4H)-one] the figure was 0.36 nM; with `Cc1nnc(-c2ccc3c(c2)nc(CN2CCC(c4cccc5c4OC(C)(c4ccc(Cl)cc4F)O5)CC2)n3C[C@@H]2CCO2)[nH]1` (stereo partly drawn) [Compound 243a, 2-({4-[2-(4-chloro-2-fluorophenyl)-2-methyl-2H-1,3-benzodioxol-4-yl]piperidin-1-yl}methyl)-5-(5-methyl-4H-1,2,4-triazol-3-yl)-1-{[(2S)-oxetan-2-yl]methyl}-1H-1,3-benzodiazole], 0.052 nM; with `CC1(c2ccc(Cl)cc2F)Oc2cccc(C3CCN(Cc4nc5cc(-c6nnc(C(F)F)[nH]6)cnc5n4C[C@@H]4CCO4)CC3)c2O1` (stereo partly drawn) [Compound 244a, 4-[2-(4-chloro-2-fluorophenyl)-2-methyl-2H-1,3-benzodioxol-4-yl]-1-({6-[5-(difluoromethyl)-4H-1,2,4-triazol-3-yl]-3-{[(2S)-oxetan-2-yl]methyl}-3H-imidazo[4,5-b]pyridin-2-yl}methyl)piperidine], 0.14 nM.
Turning to `CC1(c2ccc(Cl)cc2F)Oc2cccc(C3CCN(Cc4nc5cc(-c6nnc(C(F)(F)F)[nH]6)cnc5n4C[C@H]4CCCO4)CC3)c2O1` (stereo partly drawn) [Compound 245a, 4-[2-(4-chloro-2-fluorophenyl)-2-methyl-2H-1,3-benzodioxol-4-yl]-1-[(3-{[(2R)-oxolan-2-yl]methyl}-6-[5-(trifluoromethyl)-4H-1,2,4-triazol-3-yl]-3H-imidazo[4,5-b]pyridin-2-yl)methyl]piperidine], the EC50 stood at 2.6 nM.
With `CC1(c2ccc(Cl)cc2F)Oc2cccc(C3CCN(Cc4nc5cc(-c6nnc(C(F)(F)F)[nH]6)cnc5n4C[C@@H]4CCCO4)CC3)c2O1` (stereo partly drawn) [Compound 246a, 4-[2-(4-chloro-2-fluorophenyl)-2-methyl-2H-1,3-benzodioxol-4-yl]-1-[(3-{[(2S)-oxolan-2-yl]methyl}-6-[5-(trifluoromethyl)-4H-1,2,4-triazol-3-yl]-3H-imidazo[4,5-b]pyridin-2-yl)methyl]piperidine] the figure was 0.23 nM; with `CO[C@H](C)Cn1c(CN2CCC(c3cccc4c3O[C@@](C)(c3ccc(Cl)cc3F)O4)CC2)nc2cc(-c3nnc(C(F)(F)F)[nH]3)cnc21` [Compound 247b, 4-[(2S)-2-(4-chloro-2-fluorophenyl)-2-methyl-2H-1,3-benzodioxol-4-yl]-1-({3-[(2R)-2-methoxypropyl]-6-[5-(trifluoromethyl)-4H-1,2,4-triazol-3-yl]-3H-imidazo[4,5-b]pyridin-2-yl}methyl)piperidine], 0.093 nM.

For the origin of these results see patent US20230391760A1, “HETEROCYCLIC GLP-1 AGONISTS” (Gasherbrum Bio, Inc., priority 2020, published 2023).
